Data on 7 compounds can be found in patent publication US10365268B2, “Methods for identifying modulators of membrane potentials in bipolar disorder and attention deficit hyperactivity disorder” (PsychNostics, LLC, priority 2011, dated 2019).

Entries after “also recorded” stand apart in the source; their conditions may differ.

Experiment [1] has as its system RBC. The experiment in a line: membrane potential ratio (MPR) test: agent added to K+-free, EtOH-containing test buffer versus reference buffer. The experiment is classed as cell-based, human. The conditions noted are these: for EtOH effect (hSK4 opening / hyperpolarization): hSK4 blockers added to the test buffer. An excerpt:
It is essential to understand these differences so that the underlying pathophysiology of these disorders is better understood leading to better diagnostic markers and drug targets. […] Membrane potential ratio (MPR™) is the ratio between the membrane potential in the test buffer and that in the reference buffer. The reference buffer contains NaCl, CaCl2, glucose and Hepes whereas the test buffer contains ethyl alcohol (EtOH) in addition to these compounds. […] The role of the absence of K^+ ions in the buffer on membrane potential and the addition of EtOH needs to be understood in order to explain their effects.
The assay uses a reference buffer or regular buffer and a test buffer. The “reference buffer” or “regular buffer” contains only Na^+, Ca^2+, and HEPES without any other reagents. The “test buffer” containing no potassium (K^+-free buffer) is a HEPES buffer without potassium (4 mM NaHCO3, 5 mM HEPES, 134 mM NaCl, 2.3 mM CaCl2, and 5 mM glucose) and with a K^+ channel altering agent, at a pH of 6.8 (range of 6.6 to 7.0). The test buffer may also contain 30 μM ethacrynic acid dissolved in EtOH as solvent.
In order to verify the CAK channel is involved in the membrane potential of the RBC used for the membrane potential ratios (MPR™) tests, the CAK channel blockers, quinine and clotrimazole were added to the test buffer and the membrane potential ratios (MPR™) was determined. The membrane potential ratios (MPR™) values are shown in box plots. […] Similarly boxes 3, 4 and 5 show the results for clotrimazole (CLTX). Box 3 represents no CLTX, while box 4 for 2.5 micro molar CLTX and box 5 for 5 micro molar concentrations in the test buffer.
Blood samples from a patient were suspended in a reference buffer (reference buffer sample) as well as in a test buffer (test buffer sample) with 3,3′-dihexyloxacarbocyanine iodide (DiOC6) dye, incubated, spun, drained and the […] resuspended in their respective buffers without the dye. The resuspended buffer samples were then distributed in three separate 96 well plates and tested in a Plate Reader for fluorescence intensity. The Plate Reader recorded a data matrix of each of the 96 well plates and the data matrix was transferred to a Template to calculate the ratio between the test buffer sample and the corresponding reference buffer sample. The resulting ratios were calculated to determine the mean value, the standard deviation and the coefficient of variation. This procedure was repeated two more times and the resulting mean value, standard deviation and the coefficient of variation calculated in the same manner. The Membrane Potential Ratio (MPR™) obtained from the mean values was 0.781 (with a standard deviation of 0.014 and coefficient of variation of 1.76). Based on the MPR™ value of 0.781, the patient was diagnosed to have ADHD (with a greater than 97% probability).

For experiment [2], the system named is diacylglycerol kinase. The settings on record: human red blood cell membranes; de Courcelles et al. 1985; cited from earlier work.
The subject of experiment [3] is calmodulin-dependent protein kinase II (CaM-kinase II). The settings on record: Ishida et al. 1995; cited from earlier work.
The mark [4] stands for this setting: CAK channel blockers added to the test buffer (quinine 1 mM; CLTX 2.5 and 5 micro molar), FIG. 2.

On to `Nc1ncnc2c1nc(Sc1ccc(Cl)cc1)n2[C@@H]1O[C@@H]2COP(=O)(O)O[C@H]2[C@H]1O` [8-CPT, 8-CPT-cAMP], for which the “effect on membrane potential ratio (MPR) / membrane potentials” value in experiment [1] (50 μM in the test buffer, FIG. 3) is “did not have any effect; also recorded: no effect”. Consider `Cc1nc2sccn2c(=O)c1CCN1CCC(=C(c2ccccc2)c2ccc(F)cc2)CC1` [ALX, 6-[2-[4-[(4-fluorophenyl)phenylmethylene]-1-piperidinyl]ethyl]-7-methyl-5H-thiazolo[3,2-a]pyrimidin-5-one], for which the “inhibition of diacylglycerol kinase” value in experiment [2] is “found to inhibit diacylglycerol kinase”. In addition, in experiment [1] (three concentrations 2.5 μl, 5 μl and 7.5 μl, FIG. 7), the “effect on membrane potential” value is “depolarizes the membrane potential”. With `CCCCCCCCCCCCCC(=O)O[C@@H]1[C@@H](C)[C@@]2(O)[C@@H](C=C(CO)C[C@]3(O)C(=O)C(C)=C[C@@H]23)[C@@H]2C(C)(C)[C@]12OC(C)=O` [PMA, phorbol 12-myristate 13-acetate], the “effect on membrane potential ratio (MPR) / cell polarization” value in experiment [1] (2.5 μM in the test buffer versus without PMA, FIG. 4) is reported as “depolarizes the cells very effectively”.

Turning to `CN[C@@H]1C[C@H]2O[C@@](C)([C@@H]1OC)n1c3ccccc3c3c4c(c5c6ccccc6n2c5c31)C(=O)NC4` [Staurosporine, staurosporine], the “effect on membrane potentials” value in experiment [1] (three concentrations (250 nM, 500 nM and 750 nM) in the test buffer, FIG. 5) is listed as “hyperpolarizes the membrane potentials very effectively”; in experiment [1] (three concentrations (250 nM, 500 nM and 750 nM) in the test buffer, FIG. 5, listed as staurosporine), “hyperpolarizes the membrane potential in a concentration dependent manner”. Take `Clc1ccccc1C(c1ccccc1)(c1ccccc1)n1ccnc1` [clotrimazole]: the “effect on membrane potentials” value in experiment [1] (setting [4]) was “depolarized the membrane potentials robustly”. Further, the “EtOH effect (hSK4 opening / hyperpolarization)” value in experiment [1] (FIG. 2) is reported as “blocked”. In the case of `C=C[C@H]1C[N@@]2CC[C@H]1C[C@H]2[C@H](O)c1ccnc2ccc(OC)cc12` [quinine], the “membrane potential ratio (MPR) values” in experiment [1] (1 mM quinine in the test buffer compared to test buffer without quinine, FIG. 2) is on record as “increased”. In addition, the “effect on membrane potentials” value in experiment [1] (setting [4]) is given as “depolarized the membrane potentials robustly”. Moreover, the “EtOH effect (hSK4 opening / hyperpolarization)” value in experiment [1] (FIG. 2) is “blocked”.

With “autocamtide-2-related inhibitory peptide [AIP]”, the “inhibition of CaM-kinase II” value in experiment [3] is “highly specific and potent inhibitor”. Further, the “effect on membrane potential” value in experiment [1] (5 μM concentration, FIG. 6) is on record as “depolarizes the membrane potential robustly”.
